Values quoted from earlier work in patent US20060292214A1, “Nanoparticulate acetaminophen formulations” (Elan Pharma International Limited, priority 2005, published 2006).

CC(=O)Nc1ccc(O)cc1 [acetaminophen, 4′-hydroxyacetanilide]
solubility in water: practically insoluble in water
